Source: patent US6569872B1, “Use of neurokinin receptor antagonists to treat androgen-dependent diseases” (Schering Corporation, priority 2001, dated 2003)

Key:
serum testosterone = experiment: Reduction of LHRH-stimulated serum testosterone in mice; assay type: in vivo, male nude mice
Method: The effects of Compounds A, B, C, D, E and F on serum testosterone were tested in mice given intramuscular (i.m.) luteinizing hormone releasing hormone (LHRH) to drive testicular androgen biosynthesis.
Male nude mice (8 weeks old, 5 mice/group) were dosed orally with 0, 5, 15, 45, 90, 150 or 300 mg/kg of Compound A in 20% hydroxypropyl β-cyclodextran (HPβCD). After 1 hour, animals were given an i.m. injection of LHRH (250 ng/kg in 50 μl Sterile Water) into the biceps femoris muscle to drive testosterone production. After an additional hour, the animals were anesthetized with ketamine/xylazine, bled by cardiac puncture, and serum testosterone levels were determined by radioimmunoassay.
The effects of 90 mg/kg of Compounds A, B, C, D, E and F on LHRH-stimulated serum testosterone levels were compared in male nude mice.

[1] = assay type: in vivo
Method: Compound A was administered as an aqueous solution in sterile water by daily oral gavage to adult healthy beagle dogs.
The dogs received 28 consecutive daily doses at dose levels of 0, 15, 30 or 60 mg/kg. […] Organ weights of male and female reproductive tract tissues were 33-86% lower than that of concurrent controls, and occurred in all dose groups. […] In the epididymides, vacuolation (mild) of epithelium was also present in the mid- and high-dose males. […] This was characterized in the ovaries by a lack of antral follicles, and most follicles that were present were small and contained only small numbers of granulosa cells. Compared to control dogs, the uterine bodies and horns had less myometrial tissue present. Uterine epithelium from dogs receiving Compound A with immature uteri had very little cytoplasm present. The changes in the female reproductive system may be related to atrophy rather than immaturity.

[2] = tested on: serum concentrations of testosterone (T) and luteinizing hormone (LH); experiment: Serum LH and testosterone in male dogs dosed for 1, 3 or 7 days; assay type: in vivo, beagle dogs
Method: To further characterize reproductive system effects, adult male healthy beagle dogs were administered sterile water (placebo) or Compound A orally by gavage for 1, 3 or 7 days (Day 0=first day of dosing). Serum was collected from blood for determination of serum concentrations of testosterone (T) and luteinizing hormone (LH).
There were typically one to three spikes of LH and T within the sampling period. In many dogs the LH spikes preceded the T spikes by 20 to 40 minutes.
In dogs receiving Compound A, serum LH and T concentrations were generally near the lower baseline values at the first time point evaluated (1 hour after the first doses), and then typically declined throughout the 4-hour evaluation. This trend toward decreased LH and T concentrations from 60 to 300 minutes postdose was statistically significant (p<0.0001). LH and T remained at low concentrations for the remainder of the study. […] The decline in LH to very low (mean values of 1.5 to 3.8 ng/ml for Compound A versus 10.2 to 14.8 ng/ml for Controls) concentration was more rapid than that seen with T. In dogs receiving Compound A, serum LH and T concentrations at Day 2 were generally lower than those at Day 0. Serum LH concentrations on Day 6 were similar to those on Day 2, while serum T concentrations on Day 6 were generally lower than those on Day 2. By Days 2 and 6, some LH and many T samples were below the limit of detection despite using sensitive assays.

[3] = tested on: serum LH, T, DHEA, and androstenedione; experiment: Lower-dose 7-day study in male beagle dogs; assay type: in vivo
Method: Another study was conducted to evaluate the effects of lower doses (0.1, 0.5, 2.5, 12.5 mg/kg) of Compound A administered to male beagle dogs for 7 days.

[4] = tested on: serum LH, T, androstenedione, and DHEA; experiment: Reversibility of the effects on hormones, 7 days dosing and 14-day postdose period; assay type: in vivo, dogs
Method: The following investigative study was conducted to determine whether the changes observed after 1 week of Compound A administration were reversible after a 14-day postdose period. The first day of dosing was Day 1.
There were eight dogs in Group 1, who received placebo (sterile water) and twelve dogs in Group 2, who received Compound A. Dogs were scheduled to be dosed for 7 days; however, one dog died shortly after receiving the sixth dose of compound A. All eight dogs in Group 1 had hormonal evaluations on Day 7; 4 of these dogs were necropsied on Day 8. The remaining four dogs in Group 1 had hormonal evaluations on Day 21 (14 days postdose), and were necropsied on Day 22. In Group 2, eleven dogs had hormonal evaluations on Day 7, and five were necropsied on Day 8. The remaining six dogs in Group 2 had hormonal evaluations on Day 21 (14 days postdose) and were necropsied on Day 22.
There were typically one to three spikes of LH and T within the sampling period. In many dogs the LH spikes preceded the T spikes by 30 to 60 minutes. Androstenedione and DHEA concentrations tended to rise and fall with those of T, although in some dogs there were many values below the limit of quantitation.
In dogs receiving Compound A at Day 7, serum LH, T, androstenedione, and DHEA concentrations were often very low. Group mean values for LH, T, androstenedione, and DHEA were 14.7, 1.5, 0.37, and 0.88 ng/ml for dogs receiving sterile water, while dogs receiving Compound A had group mean values of 2.4, 0.05, 0.01 and 0.03 ng/ml, respectively. […] It should also be noted that on Day 7 almost all T, androstenedione, and DHEA samples were below the limit of detection despite using sensitive assays.

[5] = tested on: Shionogi mouse mammary carcinoma tumors; experiment: Androgen-dependent tumor growth, Shionogi carcinoma in nude mice; assay type: in vivo; settings: end of 15 days, relative to vehicle control
Method: (§1) Following the observation of reduction of serum testosterone in mice, the effects of Compound A on androgen-dependent tumor growth were tested. […] Shionogi mouse mammary carcinoma tumors were grown in nude mice as an androgen-dependent model, and DU-145 human prostate carcinoma tumors were grown in nude mice as an androgen-independent model.
In the Shionogi experiment, male nu/nu mice (8-9 weeks old, 10 mice/group) were inoculated with Shionogi carcinoma cells and tumors were grown to approximately 150 mm^3 before initiation of Compound A administration. Mice were treated twice daily, i.p. with 20% HPβCD vehicle control, 5 mg/kg Compound A or 15 mg/kg Compound A. Tumor growth was inhibited over 15 days of Compound A treatment relative to vehicle control animals. At the end of 15 days, mean tumor volumes were inhibited by 41% and 69% in the 5 mg/kg and 15 mg/kg groups, respectively.

[6] = tested on: DU-145 human prostate carcinoma tumors; experiment: Androgen-independent tumor growth, DU-145 in nude mice; assay type: in vivo; settings: 15, 45 or 90 mg/kg twice daily i.p., over 30 days
Method: as §1
In the DU-145 experiment, male nu/nu mice (9-10 weeks old, 10 mice/group) were inoculated with DU-145 prostate carcinoma cells and tumors were grown to approximately 65 mm^3 before initiation of Compound A administration. Mice were treated twice daily, i.p. with 20% HPβCD vehicle control, 15 mg/kg, 45 mg/kg or 90 mg/kg of Compound A. As expected, tumor growth was not inhibited over 30 days in any of the Compound A groups.

[7] = males, all dose groups, 28 days oral
[8] = 7 days, 0.1, 0.5, 2.5, 12.5 mg/kg
[9] = 7 days, doses of 2.5 and 12.5 mg/kg

CNC(=O)C[C@H]1CCCN(C2CCN(CC[C@@H](/C(CN(C)C(=O)c3cc(Cl)cc(Cl)c3)=N/O)c3ccc(Cl)c(Cl)c3)CC2)C1=O [F]
reduction of LHRH-stimulated serum testosterone (statistical significance) (serum testosterone; 90 mg/kg, male nude mice): statistically significant (p<0.01) reduction

CO/N=C(\CNC(=O)c1cc(Cl)cc(Cl)c1)C(CCN1CCC(N2CCC[C@H](CC(N)=O)C2=O)CC1)c1ccc(Cl)c(Cl)c1 (stereo partly shown) [E]
reduction of LHRH-stimulated serum testosterone (statistical significance) (serum testosterone; 90 mg/kg, male nude mice): statistically significant (p<0.01) reduction

CO/N=C(\CN(C)C(=O)c1cc(Cl)cc(Cl)c1)C(CCN1CCC(N2CCCC(CC(N)=O)C2=O)CC1)c1ccc(Cl)c(Cl)c1 (stereo not shown) [C]
reduction of LHRH-stimulated serum testosterone (statistical significance) (serum testosterone; 90 mg/kg, male nude mice): statistically significant (p<0.01) reduction

CNC(=O)CC1CCCN(C2CCN(CCC(/C(CNC(=O)c3cc(Cl)cc(Cl)c3)=N/OC)c3ccc(Cl)c(Cl)c3)CC2)C1=O (stereo not shown) [Compound D]
reduction of LHRH-stimulated serum testosterone (statistical significance) (serum testosterone; 90 mg/kg, male nude mice): failed to reach statistical significance | reduction of mean serum testosterone (serum testosterone; 90 mg/kg, male nude mice, LHRH-stimulated): 19%

CNC(=O)CC1CCCN(C2CCN(CCC(/C(CN(C)C(=O)c3cc(Cl)cc(Cl)c3)=N/OC)c3ccc(Cl)c(Cl)c3)CC2)C1=O (stereo not shown) [Compound A]
organ weights of male and female reproductive tract tissues, lower than concurrent controls ([1]; beagle dogs, oral gavage, 28 daily doses, all dose groups (15, 30, 60 mg/kg)): 33-86% | appearance of ovaries and uteri ([1]; females, at least one dog in each dose group, 28 days oral): appeared immature | aspermia/hypospermia in the epididymides ([1]; males, 28 days oral): observed in all dose groups | atrophy of epididymides (microscopic grade) [1, 7]: minimal to moderate | atrophy of prostate gland (microscopic grade) [1, 7]: mild to moderate | atrophy of seminiferous tubules in the testes (microscopic grade) [1, 7]: severe | vacuolation of epithelium in the epididymides (grade) ([1]; mid- and high-dose males, 28 days oral): mild | group mean serum T concentration compared to concurrent controls ([2]; Day 0, 2 and 6, p≦0.0001): significant lower | group mean serum LH concentration compared to concurrent controls ([2]; Day 0, 2 and 6, p≦0.0005): significant lower | pulsatile patterns of serum LH and T ([2]; male beagle dogs, oral gavage): lacked the normal pulsatile patterns | histopathologic changes in testes and epididymides [3, 8]: degeneration and cellular debris in the seminiferous tubules, interstitial cell vacuolation in the testes, epithelial vacuolation, atrophy, apoptosis, hypospermia, and interstitial edema of the epididymides | histopathologic changes of the prostate gland [3, 8]: Epithelial apoptosis and atrophy | decrease in serum DHEA (dehydroepiandrosterone) [3, 9]: clearly observed | decrease in serum LH [3, 9]: clearly observed | decrease in serum T [3, 9]: clearly observed | decrease in serum androstenedione [3, 9]: clearly observed | group mean serum androstenedione ([4]; Day 7, sterile water group 0.37 ng/ml): 0.01 ng/mL | group mean serum DHEA ([4]; Day 7, sterile water group 0.88 ng/ml): 0.03 ng/mL | group mean serum T ([4]; Day 7, sterile water group 1.5 ng/ml): 0.05 ng/mL | group mean serum LH ([4]; Day 7, sterile water group 14.7 ng/ml): 2.4 ng/mL | serum DHEA group mean and peak mean concentrations versus concurrent controls ([4]; Day 21 (14 days postdose)): not significantly different | serum LH group mean and peak mean concentrations versus concurrent controls ([4]; Day 21 (14 days postdose)): not significantly different | serum T group mean and peak mean concentrations versus concurrent controls ([4]; Day 21 (14 days postdose)): not significantly different | serum androstenedione group mean and peak mean concentrations versus concurrent controls ([4]; Day 21 (14 days postdose)): not significantly different | mortality ([4]; twelve dogs in the group, shortly after the sixth dose): one dog died | inhibition of serum testosterone (serum testosterone; 15 mg/kg oral in 20% HPβCD, LHRH i.m. after 1 hour, bled after an additional hour): 62% | reduction of LHRH-stimulated serum testosterone (statistical significance) (serum testosterone; 90 mg/kg, male nude mice): statistically significant (p<0.01) reduction | maximum inhibition of serum testosterone (serum testosterone; 300 mg/kg oral in 20% HPβCD, LHRH i.m. after 1 hour, bled after an additional hour): 83% | inhibition of mean tumor volume ([5]; 5 mg/kg twice daily i.p.): 41% | inhibition of mean tumor volume ([5]; 15 mg/kg twice daily i.p.): 69% | tumor growth inhibition [6]: not inhibited

CN(C/C(=N\O)C(CCN1CCC(N2CCCC(CC(N)=O)C2=O)CC1)c1ccc(Cl)c(Cl)c1)C(=O)c1cc(Cl)cc(Cl)c1 (stereo not shown) [B]
reduction of LHRH-stimulated serum testosterone (statistical significance) (serum testosterone; 90 mg/kg, male nude mice): statistically significant (p<0.01) reduction
